Measured values published in patent US20230087351A1, “METHYL 2-ALLYL-1 -METHYL-3-OXOINDOLINE-2-C[…] 9A-ALLYL-1,2,3,9A-TETRAHYDRO- 9H-PYRROLO[1,2-A]INDOL-9-ONE DERIVATIVES AND RELATED COMPOUNDS FOR USE AS F[…] FOR LABELLING OF DRUGS, AMINO ACIDS AN PROTEINS” (UNIVERSITY OF SALFORD, priority 2019, published 2023).

Test system: not given
Details: not given

**Q.** For `C=CCC1(C(=O)OC)C(=O)c2ccccc2N1C` (stereo not drawn), which melting point is on record?
**A.** 90 to 93 °C

**Q.** Which melting point does the source give for `C=CCC1(C(=O)OC)C(=O)c2c(OC)cccc2N1C` (stereo not drawn) here?
**A.** 125 to 127 °C

**Q.** Which melting point does the source give for `C=CC(C)(C)C1(C(=O)OC)C(=O)c2c(OC)cccc2N1C` (stereo not drawn) here?
**A.** 86 to 88 °C

**Q.** For `C=CC(C)C1(C(=O)OC)C(=O)c2c(OC)cccc2N1C` (stereo not drawn), which melting point is on record?
**A.** 89 to 91 °C

**Q.** With `C=CCC1(C(=O)OC)C(=O)c2c(C)cccc2N1C` (stereo not drawn) as the compound, how does the melting point read?
**A.** 98 to 100 °C

**Q.** Which melting point does the source give for `C=CCC1(C(=O)OC)C(=O)c2c(ccc3ccccc23)N1C` (stereo not drawn) here?
**A.** 144 to 147 °C

**Q.** With `C=CCC1(C(=O)OC)C(=O)c2cc(OC)ccc2N1C` (stereo not drawn) as the compound, how does the melting point read?
**A.** 99 to 101 °C

Target: μ-opioid receptors (Homo sapiens, UniProt P35372)
Details: relative to morphine; cited from earlier work

Sequence of μ-opioid receptors (P35372 whole entry): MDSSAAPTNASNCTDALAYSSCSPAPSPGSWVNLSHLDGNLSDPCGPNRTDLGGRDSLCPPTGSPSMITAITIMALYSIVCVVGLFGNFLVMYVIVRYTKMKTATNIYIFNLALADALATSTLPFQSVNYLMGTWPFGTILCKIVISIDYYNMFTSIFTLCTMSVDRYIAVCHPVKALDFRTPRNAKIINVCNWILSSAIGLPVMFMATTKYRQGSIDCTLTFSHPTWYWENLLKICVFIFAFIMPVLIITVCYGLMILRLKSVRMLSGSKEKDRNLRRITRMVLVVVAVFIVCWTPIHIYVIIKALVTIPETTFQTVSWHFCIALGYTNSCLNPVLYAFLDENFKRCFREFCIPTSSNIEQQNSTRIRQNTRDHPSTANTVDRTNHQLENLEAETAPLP

**Q.** Which “higher potency than morphine at μ-opioid receptors” value does the source give for `CC[C@@H]1CN2CC[C@]3(Nc4cccc(OC)c4C3=O)[C@@H]2C[C@@H]1/C(=C\OC)C(=O)OC` [mitrogynine pseudoindoxyl] here?
**A.** 20 fold

Target: δ-opioid receptors (Homo sapiens, UniProt P41143)
Details: relative to morphine; cited from earlier work

Sequence of δ-opioid receptors (P41143 whole entry): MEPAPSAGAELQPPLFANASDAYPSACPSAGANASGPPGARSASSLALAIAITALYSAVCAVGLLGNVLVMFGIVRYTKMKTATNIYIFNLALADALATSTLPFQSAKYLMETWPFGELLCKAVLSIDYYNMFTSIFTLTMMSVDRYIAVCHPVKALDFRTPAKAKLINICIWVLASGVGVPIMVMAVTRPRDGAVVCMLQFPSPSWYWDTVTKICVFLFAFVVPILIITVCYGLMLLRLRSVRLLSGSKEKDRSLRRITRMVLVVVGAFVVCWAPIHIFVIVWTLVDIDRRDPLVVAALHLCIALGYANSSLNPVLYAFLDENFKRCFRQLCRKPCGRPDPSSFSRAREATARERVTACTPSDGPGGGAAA

**Q.** Which “higher potency than morphine at δ-opioid receptors” value does the source give for `CC[C@@H]1CN2CC[C@]3(Nc4cccc(OC)c4C3=O)[C@@H]2C[C@@H]1/C(=C\OC)C(=O)OC` [mitrogynine pseudoindoxyl] here?
**A.** 35 fold
